From ChEMBL document CHEMBL1152857, “Possible anticancer agents: QSAR analogs of glutamamide: synthesis and pharmacological activity of 1,5-N,N'-disubstituted-2-(substituted benzenesulphonyl) glutamamides” (2009)

Experiments:
[1] = Anticancer activity against mouse EAC cells xenografted in Swiss albino mouse assessed as inhibition of ascitic fluid weight; assay type: functional, Ehrlich
IMR-32 = test: Cytotoxicity against human IMR32 cells at 60 ug/ml by MTT assay; assay type: functional
[2] = Anticancer activity against mouse EAC cells xenografted in Swiss albino mouse assessed as inhibition of ascitic cell count; assay type: functional, Ehrlich
[3] = Anticancer activity against mouse EAC cells xenografted in Swiss albino mouse assessed as inhibition of ascitic fluid weight at 1 mg/kg; assay type: functional; conditions: Ehrlich
[4] = Anticancer activity against mouse EAC cells xenografted in Swiss albino mouse assessed as inhibition of ascitic cell count at 1 mg/kg; assay type: functional; conditions: Ehrlich

Cc1ccc(Cl)c(S(=O)(=O)NC(CCC(N)=O)C(N)=O)c1 (stereo not given)
inhibition (INH) [1]: 36.5% | inhibition at 60 µg/mL (IMR-32): 25.8% | inhibition (INH) [2]: 28.6%

O=C(CCC(NS(=O)(=O)c1cc(Cl)ccc1Cl)C(=O)NCc1ccccc1)NCc1ccccc1 (stereo not given)
inhibition (INH) [1]: 49.9% | inhibition at 60 µg/mL (IMR-32): 13.4% | inhibition (INH) [2]: 53.1%

CCCCCNC(=O)CCC(NS(=O)(=O)c1cc(Cl)ccc1Cl)C(=O)NCCCCC (stereo not given)
inhibition (INH) [1]: 41.2% | inhibition at 60 µg/mL (IMR-32): 12.2% | inhibition (INH) [2]: 61.1%

Cc1ccc(Cl)c(S(=O)(=O)NC(CCC(=O)NCC(C)C)C(=O)NCC(C)C)c1 (stereo not given)
inhibition (INH) [1]: 27.9% | inhibition (INH) [2]: 40%

CCNC(=O)CCC(NS(=O)(=O)c1cc(Cl)ccc1Cl)C(=O)NCC (stereo not given)
inhibition (INH) [1]: 60.5% | inhibition at 60 µg/mL (IMR-32): 12.9% | inhibition (INH) [2]: 67.5%

Cc1ccc(Cl)c(S(=O)(=O)NC(CCC(=O)NC(C)C)C(=O)NC(C)C)c1 (stereo not given)
inhibition (INH) [1]: 81.5% | inhibition at 60 µg/mL (IMR-32): 29.8% | inhibition (INH) [2]: 53%

Cc1ccc(Cl)c(S(=O)(=O)NC(CCC(=O)Nc2ccccc2)C(=O)Nc2ccccc2)c1 (stereo not given)
inhibition (INH) [1]: 41.2% | inhibition (INH) [2]: 45.5%

Cc1ccc(Cl)c(S(=O)(=O)NC(CCC(=O)NCc2ccccc2)C(=O)NCc2ccccc2)c1 (stereo not given)
inhibition (INH) [1]: 36.5% | inhibition (INH) [2]: 50.5%

CCCCCNC(=O)CCC(NS(=O)(=O)c1ccc(Cl)c(Cl)c1)C(=O)NCCCCC (stereo not given)
inhibition (INH) [1]: 28.1% | inhibition at 60 µg/mL (IMR-32): 20.8% | inhibition (INH) [2]: 10%

CCCNC(=O)CCC(NS(=O)(=O)c1cc(C)ccc1Cl)C(=O)NCCC (stereo not given)
inhibition at 60 µg/mL (IMR-32): 14.9%

[N-]=[N+]=CC(=O)CC[C@H](N)C(=O)O [6-DIAZO-5-OXO-L-NORLEUCINE]
inhibition in vivo at 1 mg/kg [3]: 100% | inhibition in vivo at 1 mg/kg [4]: 100%

O=C(CCC(NS(=O)(=O)c1ccc(Br)cc1)C(=O)NC1CCCCC1)NC1CCCCC1 (stereo not given)
inhibition (INH) [1]: 43% | inhibition at 60 µg/mL (IMR-32): 18.4% | inhibition (INH) [2]: 47%

Cc1ccc(S(=O)(=O)NC(CCC(N)=O)C(N)=O)c(C)c1 (stereo not given)
inhibition (INH) [1]: 31.2% | inhibition at 60 µg/mL (IMR-32): 28.2% | inhibition (INH) [2]: 35.2%

CCNC(=O)CCC(NS(=O)(=O)c1cc(C)ccc1Cl)C(=O)NCC (stereo not given)
inhibition (INH) [1]: 28.1% | inhibition at 60 µg/mL (IMR-32): 31.8% | inhibition (INH) [2]: 32.3%

CC(C)NC(=O)CCC(NS(=O)(=O)c1ccc(C(C)(C)C)cc1)C(=O)NC(C)C (stereo not given)
inhibition (INH) [1]: 44.7% | inhibition at 60 µg/mL (IMR-32): 65.6% | inhibition (INH) [2]: 34.1%

CCCCCCNC(=O)CCC(NS(=O)(=O)c1ccc(C)cc1C)C(=O)NCCCCCC (stereo not given)
inhibition (INH) [1]: 38.4% | inhibition at 60 µg/mL (IMR-32): 66% | inhibition (INH) [2]: 52.1%

CCCCNC(=O)CCC(NS(=O)(=O)c1ccc(C)cc1C)C(=O)NCCCC (stereo not given)
inhibition (INH) [1]: 46.1% | inhibition at 60 µg/mL (IMR-32): 46.1% | inhibition (INH) [2]: 35.6%

Cc1ccc(Cl)c(S(=O)(=O)NC(CCC(=O)NC2CCCCC2)C(=O)NC2CCCCC2)c1 (stereo not given)
inhibition (INH) [1]: 40.2% | inhibition at 60 µg/mL (IMR-32): 49.7% | inhibition (INH) [2]: 35%

CCCCCNC(=O)CCC(NS(=O)(=O)c1cc(C)ccc1Cl)C(=O)NCCCCC (stereo not given)
inhibition (INH) [1]: 33.3% | inhibition at 60 µg/mL (IMR-32): 14.7% | inhibition (INH) [2]: 47.1%

CO[C@@]12[C@H](COC(N)=O)C3=C(C(=O)C(C)=C(N)C3=O)N1C[C@@H]1N[C@@H]12 [MITOMYCIN]
inhibition in vivo at 1 mg/kg [3]: 100% | inhibition in vivo at 1 mg/kg [4]: 100%

N#[N+]/C=C(\[O-])OC[C@H](N)C(=O)O [AZASERIN]
inhibition in vivo at 1 mg/kg [3]: 100% | inhibition in vivo at 1 mg/kg [4]: 100%

O=C(CCC(NS(=O)(=O)c1ccc(Cl)c(Cl)c1)C(=O)NCc1ccccc1)NCc1ccccc1 (stereo not given)
inhibition (INH) [1]: 40% | inhibition at 60 µg/mL (IMR-32): 11.4% | inhibition (INH) [2]: 45.3%

CCCCNC(=O)CCC(NS(=O)(=O)c1cc(C)ccc1Cl)C(=O)NCCCC (stereo not given)
inhibition (INH) [1]: 25.2% | inhibition at 60 µg/mL (IMR-32): 18% | inhibition (INH) [2]: 43.5%

CCCCCCNC(=O)CCC(NS(=O)(=O)c1cc(Cl)ccc1Cl)C(=O)NCCCCCC (stereo not given)
inhibition (INH) [1]: 31.9% | inhibition at 60 µg/mL (IMR-32): 12.4% | inhibition (INH) [2]: 52.9%

O=C(CCC(NS(=O)(=O)c1ccc(Br)cc1)C(=O)NCc1ccccc1)NCc1ccccc1 (stereo not given)
inhibition (INH) [1]: 70% | inhibition (INH) [2]: 48.9%

CC(C)CNC(=O)CCC(NS(=O)(=O)c1ccc(Br)cc1)C(=O)NCC(C)C (stereo not given)
inhibition (INH) [1]: 54% | inhibition at 60 µg/mL (IMR-32): 17.1% | inhibition (INH) [2]: 50.8%

O=C(CCC(NS(=O)(=O)c1ccc(Cl)c(Cl)c1)C(=O)NC1CCCCC1)NC1CCCCC1 (stereo not given)
inhibition (INH) [1]: 16.8% | inhibition at 60 µg/mL (IMR-32): 24% | inhibition (INH) [2]: 17.4%

O=C(CCC(NS(=O)(=O)c1cc(Cl)ccc1Cl)C(=O)Nc1ccccc1)Nc1ccccc1 (stereo not given)
inhibition (INH) [1]: 35.2% | inhibition at 60 µg/mL (IMR-32): 22.9% | inhibition (INH) [2]: 71.1%

CCNC(=O)CCC(NS(=O)(=O)c1ccc(C(C)(C)C)cc1)C(=O)NCC (stereo not given)
inhibition (INH) [1]: 30.8% | inhibition at 60 µg/mL (IMR-32): 58.4% | inhibition (INH) [2]: 21.6%

CCCCCCNC(=O)CCC(NS(=O)(=O)c1cc(C)ccc1Cl)C(=O)NCCCCCC (stereo not given)
inhibition (INH) [1]: 24.2% | inhibition at 60 µg/mL (IMR-32): 11.3% | inhibition (INH) [2]: 33.4%

CCCCNC(=O)CCC(NS(=O)(=O)c1cc(Cl)ccc1Cl)C(=O)NCCCC (stereo not given)
inhibition (INH) [1]: 34% | inhibition at 60 µg/mL (IMR-32): 15.8% | inhibition (INH) [2]: 57.9%

CC(C)(C)c1ccc(S(=O)(=O)NC(CCC(N)=O)C(N)=O)cc1 (stereo not given)
inhibition (INH) [1]: 27.5% | inhibition (INH) [2]: 42.15%

CC(C)CNC(=O)CCC(NS(=O)(=O)c1cc(Cl)ccc1Cl)C(=O)NCC(C)C (stereo not given)
inhibition (INH) [1]: 42.5% | inhibition at 60 µg/mL (IMR-32): 20.4% | inhibition (INH) [2]: 79.3%

CC(C)NC(=O)CCC(NS(=O)(=O)c1cc(Cl)ccc1Cl)C(=O)NC(C)C (stereo not given)
inhibition (INH) [1]: 38.5% | inhibition at 60 µg/mL (IMR-32): 16.7% | inhibition (INH) [2]: 73.3%

O=C(CCC(NS(=O)(=O)c1ccc(Br)cc1)C(=O)Nc1ccccc1)Nc1ccccc1 (stereo not given)
inhibition (INH) [1]: 63.4% | inhibition at 60 µg/mL (IMR-32): 10% | inhibition (INH) [2]: 66.5%
